Consider 7 compounds from ChEMBL document CHEMBL1128685, “Novel and potent adenosine 3',5'-cyclic phosphate phosphodiesterase III inhibitors: thiazolo[4,5-b][1,6]naphthyridin-2-ones” (J Med Chem, 1995).

For the assay, the target named is Phosphodiesterase 3 (Homo sapiens, UniProt Q14432+Q13370). Put plainly: Inhibition of cAMP PDE 3. The class given is protein assay.
`CC(C)Cc1nccc2nc3nc(O)sc3cc12` gave an IC50 of 330 nM.

For the compound `CCCc1nccc2nc3nc(O)sc3cc12`, the IC50 came to 67 nM.

The compound `Oc1nc2nc3ccnc(-c4ccccc4)c3cc2s1` displayed an IC50 of 430 nM.

In the case of `CCc1nccc2nc3nc(O)sc3cc12`, the IC50 is 22 nM.

`Oc1ccc(-c2nccc3nc4nc(O)sc4cc23)cc1` showed an IC50 of 240 nM.

Turning to `Cc1nccc2nc3nc(O)sc3cc12`, the IC50 was determined as 62 nM.

As to `O=[N+]([O-])c1cc(-c2nccc3nc4nc(O)sc4cc23)ccc1O`, the IC50 turned out to be 83 nM.

The term IC50 denotes the point on the concentration scale where inhibition reaches its midpoint. High values mean lower potency, low ones higher potency.
